Source: article PMC8586704 (Frontiers in Chemistry, 2021)
Values after ≈ are worked out from the molar mass of the structure shown. Where two headings read alike, the source gives them in different places. Starred links: 1 amine or outer side, 2 acyl side, 3 side chain; linkers in the order of their positions; H or OH if unused. Non-standard residues stand in square brackets, D forms with d. Residues, ends and D or L forms follow the SMILES beside them. Groups on a side chain read outwards from the residue. X11 = COC(=O)[C@H](Cc1c[nH]cn1)NC(=O)[C@@H](C)C[C@@H](C(=O)[*:2])N(C)[*:1]; X10 = CC[C@H](C)[C@H](NC(=O)[C@@H](C)C[C@@H](C(=O)[*:2])N(C)[*:1])C(=O)OC; X4 = COC(=O)[C@H](CCSC)NC(=O)[C@@H](C)C[C@@H](C(=O)[*:2])N(C)[*:1]; Trp(1-(1,1-Me2-allyl)) = C=CC(C)(C)n1cc(C[C@H](N)C(=O)O)c2ccccc21; NMeGlu(4S-Me) = C[C@@H](C[C@@H](C(=O)[*:2])N(C)[*:1])C(=O)[*:3]; X14 = C[C@@H](C[C@@H](C(=O)[*:2])N(C)[*:1])C(=O)NCc1ccc(Cl)cc1; X1 = C[C@@H](C[C@@H](C(=O)[*:2])N(C)[*:1])C(=O)NCc1ccc(F)cc1; X12 = C[C@@H](C[C@@H](C(=O)[*:2])N(C)[*:1])C(=O)NCc1ccccc1; Tyr(3-NO2) = N[C@@H](Cc1ccc(O)c([N+](=O)[O-])c1)C(=O)O; Gly(E-crotyl) = C/C=C/C[C@H](N)C(=O)O; NMeL = CN[C@@H](CC(C)C)C(=O)O

Tests used:
M. tuberculosis H37Rv = assay: Antitubercular activity assay, broth dilution, auto-luminescent strain; assay type: cell-based, Mycobacterium tuberculosis
MCF-7 = assay: cells; assay type: cell-based; conditions: Homo sapiens, MCF7; breast adenocarcinoma cell line
HeLa = assay: cells; assay type: cell-based; conditions: Homo sapiens, cervical carcinoma cell line
HepG2 = assay: cells; assay type: cell-based; conditions: Homo sapiens, hepatocellular carcinoma cell line
A549 = assay: Cytotoxicity assay (CCK-8); assay type: cell-based; conditions: Homo sapiens, lung cancer cell line
HCT116 = assay: cells; assay type: cell-based; conditions: Homo sapiens, HCT-116; colon cancer cell line
L02 = assay: cells; assay type: cell-based; conditions: normal human hepatic cell line
Huvec-12 = assay: Cytotoxicity assay (CCK-8); assay type: cell-based; conditions: normal human umbilical vein endothelial cell line
[1] = Mycobacterium tuberculosis, H37RV, Day 3rd, read-out: MICs against H37Rv, Day 3rd
[2] = Mycobacterium tuberculosis, H37RV, Day 7th, read-out: MICs against H37Rv, Day 7th
[3] = Mycobacterium tuberculosis, H37RV, Day 14th, read-out: MICs against H37Rv, Day 14th
[4] = Day 3rd, read-out: MICs against H37Rv, Day 3rd
[5] = Day 14th, read-out: MICs against H37Rv, Day 14th

SMILES	MIC (M. tuberculosis H37Rv; [1]) [µM]	MIC (M. tuberculosis H37Rv; [2]) [µM]	MIC (M. tuberculosis H37Rv; [3]) [µM]	IC50 (MCF-7) [µM]	IC50 (HeLa) [µM]	IC50 (HepG2) [µM]	IC50 (A549) [µM]	IC50 (HCT116) [µM]	IC50 (L02) [µM]	IC50 (Huvec-12) [µM]	MIC (M. tuberculosis H37Rv; [4]) [µM]	MIC (M. tuberculosis H37Rv; [5]) [µM]	increase of anti-TB activity compared with ilamycin F (M. tuberculosis H37Rv; Day 3rd)	more potent MIC value than that of 9 and 11 (M. tuberculosis H37Rv; Day 14th) [fold]
C=CC(C)(C)n1cc(C[C@@H]2NC(=O)[C@H](C/C=C/C)NC(=O)[C@H](CC(C)C)NC(=O)[C@H](C[C@H](C)C(=O)N[C@@H](CCSC)C(=O)OC)N(C)C(=O)[C@H](C)NC(=O)[C@H](Cc3ccc(O)c([N+](=O)[O-])c3)NC(=O)[C@H](CC(C)C)N(C)C2=O)c2ccccc21 [Compound 2, ilamycin NJL2] (cyclo(A[X4]L[Gly(E-crotyl)][Trp(1-(1,1-Me2-allyl))][NMeL][Tyr(3-NO2)]))	6.7 (≈ 7.96 µg/mL)	6.7 (≈ 7.96 µg/mL)	3.4 (≈ 4.04 µg/mL)	> 50	> 50	> 50	> 50	> 50	> 50	> 50				
C=CC(C)(C)n1cc(C[C@@H]2NC(=O)[C@H](C/C=C/C)NC(=O)[C@H](CC(C)C)NC(=O)[C@H](C[C@H](C)C(=O)N[C@H](C(=O)OC)[C@@H](C)CC)N(C)C(=O)[C@H](C)NC(=O)[C@H](Cc3ccc(O)c([N+](=O)[O-])c3)NC(=O)[C@H](CC(C)C)N(C)C2=O)c2ccccc21 [Compound 3, ilamycin NJL3] (cyclo(A[X10]L[Gly(E-crotyl)][Trp(1-(1,1-Me2-allyl))][NMeL][Tyr(3-NO2)]))	6.8 (≈ 7.95 µg/mL)	6.8 (≈ 7.95 µg/mL)	6.8 (≈ 7.95 µg/mL)	> 50	14.5	> 50	> 50	> 50	12	> 50				
C=CC(C)(C)n1cc(C[C@@H]2NC(=O)[C@H](C/C=C/C)NC(=O)[C@H](CC(C)C)NC(=O)[C@H](C[C@H](C)C(=O)N[C@@H](CCCNC(=N)N)C(=O)OC)N(C)C(=O)[C@H](C)NC(=O)[C@H](Cc3ccc(O)c([N+](=O)[O-])c3)NC(=O)[C@H](CC(C)C)N(C)C2=O)c2ccccc21 [Compound 4, ilamycin NJL4] (cyclo(A[NMeGlu(4S-Me)]([Arg-OMe])L[Gly(E-crotyl)][Trp(1-(1,1-Me2-allyl))][NMeL][Tyr(3-NO2)]))	26.4 (≈ 32 µg/mL)	26.4 (≈ 32 µg/mL)	26.4 (≈ 32 µg/mL)	> 50	26	> 50	23	30.6	25.9	35.2				
C=CC(C)(C)n1cc(C[C@@H]2NC(=O)[C@H](C/C=C/C)NC(=O)[C@H](CC(C)C)NC(=O)[C@H](C[C@H](C)C(=O)N[C@@H](Cc3c[nH]cn3)C(=O)OC)N(C)C(=O)[C@H](C)NC(=O)[C@H](Cc3ccc(O)c([N+](=O)[O-])c3)NC(=O)[C@H](CC(C)C)N(C)C2=O)c2ccccc21 [Compound 5, ilamycin NJL5] (cyclo(A[X11]L[Gly(E-crotyl)][Trp(1-(1,1-Me2-allyl))][NMeL][Tyr(3-NO2)]))	26.8 (≈ 32 µg/mL)	26.8 (≈ 32 µg/mL)	26.8 (≈ 32 µg/mL)	> 50	> 50	> 50	> 50	> 50	> 50	> 50				
C=CC(C)(C)n1cc(C[C@@H]2NC(=O)[C@H](C/C=C/C)NC(=O)[C@H](CC(C)C)NC(=O)[C@H](C[C@H](C)C(=O)N[C@@H](Cc3c[nH]c4ccccc34)C(=O)OC)N(C)C(=O)[C@H](C)NC(=O)[C@H](Cc3ccc(O)c([N+](=O)[O-])c3)NC(=O)[C@H](CC(C)C)N(C)C2=O)c2ccccc21 [Compound 6, ilamycin NJL6] (cyclo(A[NMeGlu(4S-Me)]([Trp-OMe])L[Gly(E-crotyl)][Trp(1-(1,1-Me2-allyl))][NMeL][Tyr(3-NO2)]))	1.6 to 3.5 (≈ 1.99 to 4.35 µg/mL)	1.7 (≈ 2.11 µg/mL)	1.6 to 1.7 (≈ 1.99 to 2.11 µg/mL)	> 50	> 50	> 50	> 50	> 50	> 50	> 50	1.7 (≈ 2.11 µg/mL)	1.7 (≈ 2.11 µg/mL)		
C=CC(C)(C)n1cc(C[C@@H]2NC(=O)[C@H](C/C=C/C)NC(=O)[C@H](CC(C)C)NC(=O)[C@H](C[C@H](C)C(=O)N[C@@H](Cc3ccccc3)C(=O)OC)N(C)C(=O)[C@H](C)NC(=O)[C@H](Cc3ccc(O)c([N+](=O)[O-])c3)NC(=O)[C@H](CC(C)C)N(C)C2=O)c2ccccc21 [Compound 7, ilamycin NJL7] (cyclo(A[NMeGlu(4S-Me)]([Phe-OMe])L[Gly(E-crotyl)][Trp(1-(1,1-Me2-allyl))][NMeL][Tyr(3-NO2)]))	26.6 (≈ 32 µg/mL)	13.3 (≈ 16 µg/mL)	6.6 (≈ 7.94 µg/mL)	> 50	> 50	> 50	> 50	> 50	> 50	> 50				
C=CC(C)(C)n1cc(C[C@@H]2NC(=O)[C@H](C/C=C/C)NC(=O)[C@H](CC(C)C)NC(=O)[C@H](C[C@H](C)C(=O)N[C@@H](Cc3ccc(O)cc3)C(=O)OC)N(C)C(=O)[C@H](C)NC(=O)[C@H](Cc3ccc(O)c([N+](=O)[O-])c3)NC(=O)[C@H](CC(C)C)N(C)C2=O)c2ccccc21 [Compound 8, ilamycin NJL8] (cyclo(A[NMeGlu(4S-Me)]([Tyr-OMe])L[Gly(E-crotyl)][Trp(1-(1,1-Me2-allyl))][NMeL][Tyr(3-NO2)]))	1.6 to 3.5 (≈ 1.95 to 4.27 µg/mL)	1.6 (≈ 1.95 µg/mL)	1.6 to 1.7 (≈ 1.95 to 2.07 µg/mL)	> 50	> 50	> 50	> 50	> 50	> 50	> 50	1.6 (≈ 1.95 µg/mL)	1.6 (≈ 1.95 µg/mL)		
C=CC(C)(C)n1cc(C[C@@H]2NC(=O)[C@H](C/C=C/C)NC(=O)[C@H](CC(C)C)NC(=O)[C@H](C[C@H](C)C(=O)NCc3ccccc3)N(C)C(=O)[C@H](C)NC(=O)[C@H](Cc3ccc(O)c([N+](=O)[O-])c3)NC(=O)[C@H](CC(C)C)N(C)C2=O)c2ccccc21 [Compound 9, ilamycin NJL9] (cyclo(A[X12]L[Gly(E-crotyl)][Trp(1-(1,1-Me2-allyl))][NMeL][Tyr(3-NO2)]))	3.5 (≈ 3.96 µg/mL)	3.5 (≈ 3.96 µg/mL)	3.5 (≈ 3.96 µg/mL)	> 50	> 50	> 50	> 50	> 50	> 50	> 50				
C=CC(C)(C)n1cc(C[C@@H]2NC(=O)[C@H](C/C=C/C)NC(=O)[C@H](CC(C)C)NC(=O)[C@H](C[C@H](C)C(=O)NCc3ccc(F)cc3)N(C)C(=O)[C@H](C)NC(=O)[C@H](Cc3ccc(O)c([N+](=O)[O-])c3)NC(=O)[C@H](CC(C)C)N(C)C2=O)c2ccccc21 [Compound 10, ilamycin NJL10] (cyclo(A[X1]L[Gly(E-crotyl)][Trp(1-(1,1-Me2-allyl))][NMeL][Tyr(3-NO2)]))	1.6 to 3.5 (≈ 1.84 to 4.02 µg/mL)	1.7 (≈ 1.95 µg/mL)	1.6 to 1.7 (≈ 1.84 to 1.95 µg/mL)	> 50	> 50	> 50	> 50	> 50	> 50	> 50	1.7 (≈ 1.95 µg/mL)	1.7 (≈ 1.95 µg/mL)	9–19 fold	2
C=CC(C)(C)n1cc(C[C@@H]2NC(=O)[C@H](C/C=C/C)NC(=O)[C@H](CC(C)C)NC(=O)[C@H](C[C@H](C)C(=O)NCc3ccc(Cl)cc3)N(C)C(=O)[C@H](C)NC(=O)[C@H](Cc3ccc(O)c([N+](=O)[O-])c3)NC(=O)[C@H](CC(C)C)N(C)C2=O)c2ccccc21 [Compound 11, ilamycin NJL11] (cyclo(A[X14]L[Gly(E-crotyl)][Trp(1-(1,1-Me2-allyl))][NMeL][Tyr(3-NO2)]))	3.4 (≈ 3.96 µg/mL)	3.4 (≈ 3.96 µg/mL)	3.4 (≈ 3.96 µg/mL)	> 50	> 50	> 50	> 50	> 50	> 50	> 50				
COc1cccc2c1C(=O)c1c(O)c3c(c(O)c1C2=O)C[C@@](O)(C(=O)CO)C[C@@H]3O[C@H]1C[C@H](N)[C@H](O)[C@H](C)O1 [doxorubicin, reference compound]				4	0.7	0.6	1.5	4	7.7	12				
